Reference: PubChem BioAssay (NCI)
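Tested at 5 concentrations; 48 h exposure; 96-well plates; endpoints linearly interpolated, else capped at highest concentration. At the TGI there is no net growth.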

Legend:
Assay in all cases: growth of human tumour cells (NCI), 48 h
[1] = test system: 786-0 renal
[2] = test system: CAKI-1 renal
[3] = test system: COLO 205 colon
[4] = test system: DU-145 prostate
[5] = test system: HOP-62 NSCLC
[6] = test system: HS 578T breast
[7] = test system: MDA-MB-435
[8] = test system: NCI-H23 lung
[9] = test system: NCI/ADR-RES ovarian
[10] = test system: SF-268 CNS
[11] = test system: SK-MEL-2 melanoma
[12] = test system: SR leukemia
[13] = test system: UO-31 renal

Row | SMILES | TGI [1] [µM] | TGI [2] [µM] | TGI [3] [µM] | TGI [4] [µM] | TGI [5] [µM] | TGI [6] [µM] | TGI [7] [µM] | TGI [8] [µM] | TGI [9] [µM] | TGI [10] [µM] | TGI [11] [µM] | TGI [12] [µM] | TGI [13] [µM]
1 | Cc1cc(C)c2c(=O)n(CC(O)CN3CCN(c4ncccn4)CC3)sc2n1 (stereo not given) | 27.6 | 39.5 | 33 | 30.2 | 42 | 42.8 | 30.1 | 31.6 | 78 | 32.6 | 32.7 | 36.5 | 30
2 | Nc1nc(-c2ccccc2)cc(-c2ccc(F)cc2)c1-c1ccc(Cl)cc1 | > 100 | > 100 | > 100 | > 100 | > 100 | > 100 | > 100 | > 100 | > 100 | > 100 | > 100 | > 100 | > 100
3 | CCOC(=O)C(C(N)=O)c1nc2cc([N+](=O)[O-])ccc2nc1/C=C(\O)c1ccc(C)cc1 (stereo not given) | 28.7 | > 100 | > 93.2 | > 100 | 33.9 | 75.1 | > 100 | 34.3 | 53 | 35.8 | 48.9 | 25.9 | 49
4 | NC(=O)c1ccc(N)nc1 | > 400 | > 400 | > 400 | > 400 | > 247 | > 400 | > 400 | > 400 | > 400 | > 400 | > 400 | > 400 | > 400
5 | NC(=O)c1ncn(C2CCC(CP(=O)(O)O)C2)c1N (stereo not given) | > 100 | > 100 | > 100 | > 100 | > 100 | > 100 | > 100 | > 100 | > 100 | > 100 | > 100 | > 100 | > 100
6 | O=C(O)c1cc(/C=C/c2ccc(O)c(O)c2)ccc1O | > 100 | > 100 | > 100 | > 100 | > 100 | > 100 | > 100 | > 100 | > 100 | > 100 | > 100 | > 100 | > 100
7 | CCOC(=O)C(NC(=O)Nc1ccccc1)(Nc1cccc(Cl)c1)C(F)(F)F (stereo not given) | > 100 | > 100 | > 100 | > 100 | > 100 | > 78.4 | > 100 | > 100 | > 100 | > 100 | > 100 | > 100 | > 100
8 | CC(CCC(=O)O)(c1cc(Br)c(O)c(Br)c1)c1cc(Br)c(O)c(Br)c1 | > 100 | > 100 | > 100 | > 100 | > 100 | > 100 | > 100 | > 100 | > 100 | > 100 | > 100 | > 100 | > 100
9 | COc1cc(CNc2nc3cc(C(F)(F)F)ccc3nc2C(=O)O)cc(OC)c1OC | 59.1 | 78.9 | 53.7 | > 100 | 59.3 | 57 | 92.9 | > 100 | 76.4 | > 100 | 47.1 | > 100 | 39.4
10 | Cc1cc2nc(N)n[n+]([O-])c2cc1C | > 100 | > 100 | > 100 | > 100 | > 100 | > 100 | > 100 | > 100 | > 100 | > 100 | > 100 | > 100 | > 100
11 | CC(C)=CCC[C@@H](C)c1c(O)c(O)c(C)c2nc3ccccc3nc12 | 12.1 | 9.01 | 18.1 | 10.3 | 8.48 | 8.37 | 18.3 | 8.61 | 7.48 | 7.22 | 9.26 | > 100 | 5.61
12 | C(=C/c1ccc2nc(-c3ccc(/C=C/C=N/NC4=NCCCN4)cc3)cn2c1)/C=N/NC1=NCCCN1 | > 100 | 30.2 | > 100 | 41.6 | > 100 | 42.2 | > 100 | > 100 | 51.7 | 54.7 | > 100 | > 100 | > 100
13 | NCCCCN(CCCN)C(=O)OCc1ccccc1 | > 100 | > 100 | > 100 | > 100 | > 100 | > 100 | > 100 | > 100 | > 100 | > 100 | > 100 | > 100 | > 100
14 | CC1CCC(O)/C=C/C(=O)OC(C)C(O)/C=C/C(=O)O1 (stereo not given) | > 100 | > 100 | > 100 | > 100 | > 100 | > 100 | > 100 | > 100 | > 100 | > 100 | > 100 | > 100 | > 100
15 | CN(C)c1ccc(C(=C2C=CC(=[N+](C)C)C=C2)c2c(O)c(S(=O)(=O)[O-])cc3cc(S(=O)(=O)O)ccc23)cc1 | > 100 | > 100 | > 100 | > 100 | > 100 | > 100 | > 100 | > 100 | > 100 | > 100 | > 100 | > 100 | > 100
16 | O=C(NC12CC3CC(CC(C3)C1)C2)n1cnc2cncnc21 | > 100 | > 100 | 37.4 | > 100 | 51.5 | > 100 | > 100 | > 100 | > 100 | > 100 | 58.4 | 62.4 | > 100
17 | O=c1[nH]nc(Nc2ccccc2)c2nnn(Cc3ccccc3)c12 | > 100 | > 100 | > 100 | > 100 | 24 | 90.4 | > 100 | > 100 | > 100 | > 100 | > 100 | > 100 | > 100
18 | COc1ccc(/C=C/C=C2C(=O)NC(=S)NC2=O)cc1 | 5.47 | 23.8 | 13.5 | 17.7 | > 49.8 | > 56.6 | 7.77 | 21 | 12.3 | 26.8 | 35.3 | 4.63 | 19.9
19 | COC(=O)/C=C1\C(=O)N(C(C)=O)c2ccccc21 | 20.9 | 0.184 | 29.3 | 24.1 | 30.2 | 25.8 | 32.2 | 28.9 | 62.8 | > 61.3 | 33.5 | > 27.5 | 26.4
20 | NC1=CN2c3ccccc3N(CC(=O)N3CCOCC3)C2C=C1 (stereo not given) | > 100 | > 100 | > 100 | > 100 | > 100 | > 100 | > 100 | > 100 | > 100 | > 100 | > 100 | > 100 | > 100
21 | Cc1cc([C@H](C#N)c2nc3ccccc3s2)nc(Cl)n1 | 29.8 | 31 | 6.49 | 91.7 | > 100 | 33.3 | 19.6 | 15 | 10.8 | 24 | > 100 | > 100 | 21.3
22 | COc1c2c(cc3oc(=O)ccc13)OC(C)(C)C=C2 | 63.8 | 29 | 73.6 | 55.9 | > 125 | > 125 | 68.7 | 60.1 | 70.6 | > 125 | 51.1 | 44.6 | 73.6
23 | c1ccc2c3c(c(N4CCNCC4)nc2c1)CCCC3 | 27.7 | 21.9 | 18.9 | 28.6 | 48.4 | > 100 | 24.4 | 28 | 27.3 | 33.8 | 25.2 | > 100 | 16.3
24 | CCOC(=O)Cn1c(=O)c2cc(C)cc3c(Cl)nc4c(OC)c(OC)cc1c4c32 | > 100 | > 100 | > 100 | > 100 | > 100 | 74.7 | > 100 | > 100 | > 100 | > 100 | > 100 | > 100 | > 100
25 | O=c1[nH]c(=O)n(COCCO)cc1-c1ccccc1 | > 100 | > 100 | > 100 | > 100 | > 100 | > 100 | > 100 | > 100 | > 100 | > 100 | > 100 | > 100 | > 100
26 | NC(=O)NC1=NCCC(=O)N1CCc1c[nH]c2ccccc12 | > 100 | 6.54 | 27.9 | 52 | 37.6 | 80.1 | 41.1 | 43.4 | 52.8 | 47 | 29.3 | 57.3 | 31.8
27 | Cc1ccc(N=c2oc3c(ccc4ccccc43)nc2Nc2ccc(C)cc2)cc1 | > 100 | > 100 | > 100 | > 100 | > 100 | > 100 | > 100 | > 100 | > 100 | > 100 | > 100 | > 100 | > 100
28 | Nc1c2c(nc3ccccc13)-c1ccccc1CCC2 | 27.1 | 32.5 | 27.1 | 32.8 | 22.3 | 43.2 | 26.3 | 37.8 | 34.3 | 37.2 | 28.2 | 11 | 22.3
29 | c1ccc2c(c1)N=c1ccccc1=P21c2ccccc2Nc2ccccc21 | 11.7 | 8.02 | 0.366 | 10.5 | 8.32 | 3.89 | 2.35 | 5.34 | > 100 | 10.2 | 0.923 | 1.75 | 27
30 | CC(C)OCC(O)COc1cc(=O)oc2ccccc12 (stereo not given) | > 100 | > 100 | > 100 | > 100 | > 100 | > 100 | > 100 | > 100 | > 100 | > 100 | > 100 | > 100 | > 100
